From US20260132128A1, “COMPOUND FOR RECOVERING P53 MUTATION FUNCTION AND USE THEREOF” (SHENZHEN ZHONGGE BIOLOGICAL TECHNOLOGY CO., LTD., priority 2022, published 2026) come the findings set out here.

The structures appear in SMILES notation. Marks after values point to notes of the source that are not given here.

Broadly, the EC50 is the concentration that produces a half-maximal response. The low end stands for higher potency in that assay, the high end for lower potency in that assay. For orientation: GI50 means the concentration that inhibits growth by half. Broadly, the efflux ratio is a quotient of directional permeabilities that is used to spot active efflux. By Papp A→B is commonly meant the apparent permeability from the apical to the basolateral side of a cell layer. Usually Papp B→A stands for how fast a substance crosses the layer from the basolateral side.

Series [1] has as its target T1, p53 Y220C (Homo sapiens, UniProt P04637, P309S/R273H/Y220C).
T1 construct: a truncated mutant containing only amino acids 94-312 of p53; made in house; host or cells: E. coli
In words: DNA binding test (HTRF): binding of P53Y220C protein to DNA. Conditions: HTRF, activation of p53 Y220C (aa 94-312) binding to biotin DNA. It is filed as biochemical. (In general: Time-resolved FRET reads energy transfer from a long-lived donor to a nearby acceptor.)

The target of series [2] is T2, p53 Y220C (Homo sapiens, UniProt P04637, Y220C).
T2 construct: a truncated mutant containing only amino acids 94-312 of p53; made in house; host or cells: E. coli
The series is described as above. The series is classed as biochemical. The conditions noted are these: multiple ratio of EC50 of the compound to the reference compound, DNA binding test.

The subject of series [3] is NUGC-3 cells. In words: NUGC-3 cell proliferation assay (CTG). The conditions noted are these: for GI50: Homo sapiens, NUGC-3, 144 h, 6 days, CTG; for Compound GI50 (nM)/Reference compound GI50 (nM): multiple ratio of GI50 of the compound to the reference compound. It is filed as cell-based, human. A digest of the protocol: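 GI50 derived by variable-slope regression of percent inhibition (normalized to blank and 0.1% DMSO controls) from CTG luminescence. Compound was given as 10 threefold dilutions, highest final 10 μM, to overnight-seeded NUGC-3 cells (250/well) for 6 days, 37° C, 5% CO2.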

In series [4] the test system is BxPC-3 cells. The experiment in a line: BxPC-3 cell proliferation test (CTG). The series is classed as cell-based. The conditions noted are these: Homo sapiens, 144 h, 6 days. As to the method: To detect the inhibitory effects of the aforementioned compounds on the proliferation ability of BxPC-3 cells, 125 BxPC-3 cells (ATCC®CRL-1687) were seeded into a 384-well plate (Corning 3765), 35 μL per well, and placed in a constant temperature incubator at 37° C. and 5% CO2 overnight. Then, 40 nL of the compound was added to the 384-well plate using an Echo 655 Liquid Handler, with a maximum final concentration of 10 μM, 1:3 serial dilution, and in a total of 10 doses. Incubation was performed at 37° C., 5% CO2 for 6 days. The plate was taken out from the incubator and equilibrated at room temperature for 10 minutes. 20 μL of CTG (Promage G7572) was added to each well of the plate according to the platemap. The plate was centrifuged at 1000 rpm for 1 minute. The lysis of cells was induced by mixing on a shaker for 2 minutes. The plate was centrifuged at 1000 rpm for 1 minute. Incubation was performed at room temperature for 10 minutes to stabilize luminescence signals. Luminescence values were recorded by Envision (PerkinElmer 2105-0020). GraphPad 9.0 was used to fit the inhibition rate and compound concentration into a nonlinear regression curve (dose response-variable slope) to calculate GI50, inhibition rate={1−(A−B)/(C−B)}*100%, A=signal value of compound; B=average signal of blank control; C=average signal of negative control (wherein the negative control was 0.1% DMSO).

Series [5] can be described thus: Caco-2 cell permeability test. The series is classed as in vitro ADME. Conditions: human, pH 7.4, Caco-2, 10 μM. As to the method: Caco-2 cells (ATCC, Cat. No. HTB-37) were inoculated to a 96-well plate (Corning HTS Transwell, Cat. No. 3391) at 1.25×10^5/cm2, and the culture medium (DMEM+10% FBS+1% Penicillin-Streptomycin Liquid (100×)+1% NEAA) was replaced every 3 to 4 days. The plate was placed in an incubator at 37° C. with 5% CO2 until a confluent cell monolayer was formed after 21 to 28 days. Before the transport experiment, the culture medium was removed from the cell culture plate, and the plate was washed twice with pre-warmed HBSS buffer (10 mM HEPES, pH 7.4), and 100 μL of HBSS buffer was added to each well. After incubation at 37° C. for 30 minutes, the TEER value was measured using a cell resistance meter (Millicell-ERS2) to confirm the integrity and density of the monolayer cells. The HBSS buffer was discarded, the upper plate containing the cell monolayer membrane was transferred to the corresponding receiving plate, 10 mM test compound stock solution was diluted to a concentration of 10 μM with HBSS transport buffer containing 0.5% BSA, and it was added to the apical side (A side) and basolateral side (B side), respectively. Incubation was carried out for 120 min at 37° C., 5% CO2, and 95% relative humidity, and the permeation of the test compound from A side to B side or from B side to A side and the efflux rate of the compound were determined. The test compound and the reference compound were quantified by LC-MS/MS analysis based on the peak area ratio of analyte/internal standard. The apparent permeability coefficient Papp (cm/s) was calculated using the following formula:
[formula] • wherein, dCr/dt represented the functional relation between cumulative concentration of compound in receptor compartment and time; V represented the volume of solution in receptor compartment (0.1 mL at apical side, and 0.25 mL at basolateral side); A represented the transport surface area, i.e., the monolayer cell area was 0.0804 cm^2; CO represented the initial concentration of compound in donor compartment.
The efflux ratio was calculated using the following formula: […]
The percent recovery was calculated using the following formula:
[formula] [formula] • wherein, Vd represented the volume of donor compartment (0.1 mL on the apical side and 0.25 mL on the basolateral side); C and Cr represented the final concentrations of the transported compound in the donor and receptor compartment, respectively; Cc represented the compound concentration in cell lysate; Vc represented the volume of insert well (which was 0.1 mL in this experiment).
Background: Caco-2 cells form a polarised layer with tight junctions and transporters.

In series [1], `CNC(=O)c1ccc(NCC#Cc2nc3c(NC4CCN(C)CC4)nccn3c2CC(F)(F)F)c(OC)c1` [Compound 1] showed an EC50 of 500 to 1000 nM. The “Compound EC50 (nM)/Reference compound EC50 (nM)” value (shortened to “Compound EC50”) in series [2] is “C (C: EC50 of the compound≥3*EC50 of the reference compound)”. Also, the GI50 in series [3] and in series [4] was 1000 to 5000 nM in each case. The “Compound GI50 (nM)/Reference compound GI50 (nM)” value (shortened to “Compound GI50”) in series [3] is “C (C: GI50 of the compound ≥ 3 * GI50 of the reference compound)”.
`COc1cc(S(C)(=O)=O)ccc1NCC#Cc1nc2c(N[C@@H]3CCN(C)C[C@@H]3F)cccn2c1CC(F)(F)F` [Compound 3] registered an EC50 in series [1] of 100 to 500 nM. Moreover, the “Compound EC50” value in series [2] is on record as “A (A: EC50 of the compound≤EC50 of the reference compound)”. Moreover, in series [3], the GI50 was less than 1000 nM and the “Compound GI50” value is on record as “B (B: GI50 of the reference compound < GI50 of the compound ≤ 3.0 * GI50 of the reference compound)”. Moreover, in series [4], the GI50 was less than 1000 nM.
Regarding `COc1cc(S(C)(=O)=O)ccc1NCC#Cc1nc2c(NC3CCN(C)CC3)cccn2c1CC(F)(F)F` [Compound 4], the EC50 in series [1] was in the range of 100 to 500 nM. Moreover, in series [2], the “Compound EC50” value is listed as “A (A: EC50 of the compound≤EC50 of the reference compound)”. For the same compound, the results for the GI50 in series [3] and in series [4] were 1000 to 5000 nM and less than 1000 nM, respectively. The “Compound GI50” value in series [3] is “B (B: GI50 of the reference compound < GI50 of the compound ≤ 3.0 * GI50 of the reference compound)”.
As to `CNC(=O)c1ccc(NCC#Cc2nc3c(NC4CCOCC4)cccn3c2CC(F)(F)F)c(OC)c1` [Compound 8], in series [1], the EC50 fell in the range of 500 to 1000 nM. Moreover, the “Compound EC50” value in series [2] is reported as “C (C: EC50 of the compound≥3*EC50 of the reference compound)”. In addition, the 50% growth inhibitory concentration (GI50) in series [3] and in series [4] was 1000 to 5000 nM throughout. For the same compound, in series [3], the “Compound GI50” value was “C (C: GI50 of the compound ≥ 3 * GI50 of the reference compound)”.
In series [1], `CNC(=O)c1ccc(NCC#Cc2nc3c(N[C@H]4CC[C@H](N5CC6(COC6)C5)CC4)cccn3c2CC(F)(F)F)c(OC)c1` [Compound 9] registered an EC50 of 100 to 500 nM. In series [2], the “Compound EC50” value is “B (B: EC50 of the reference compound<EC50 of the compound≤3.0*EC50 of the reference compound)”. In addition, in series [3], the GI50 was less than 1000 nM and the “Compound GI50” value is on record as “B (B: GI50 of the reference compound < GI50 of the compound ≤ 3.0 * GI50 of the reference compound)”. Besides, the GI50 in series [4] was less than 1000 nM.
For the compound `CNC(=O)c1ccc(NCC#Cc2nc3c(NC4CCS(=O)(=O)CC4)cccn3c2CC(F)(F)F)c(OC)c1` [Compound 10], in series [1], the EC50 lay within 100 to 500 nM. Further, the “Compound EC50” value in series [2] is recorded as “C (C: EC50 of the compound≥3*EC50 of the reference compound)”. In series [3], the GI50 lay in the range of 1000 to 5000 nM and the “Compound GI50” value is listed as “C (C: GI50 of the compound ≥ 3 * GI50 of the reference compound)”. In series [4], this compound came in with a GI50 of 1000 to 5000 nM.
Consider `CNC(=O)c1ccc(NCC#Cc2nc3c(NC4CC[C@@H](N5CC6(CCC6)C5)C[C@@H]4F)cccn3c2CC(F)(F)F)c(OC)c1` (stereo partly drawn) [Compound 42], for which, in series [2], the “Compound EC50” value is given as “B (B: EC50 of the reference compound<EC50 of the compound≤3.0*EC50 of the reference compound)”. Further, in series [5], the efflux ratio at 120 min, 10 μM turned out to be 1.72. Besides, the Papp A→B at 120 min, 10 μM in series [5] (A to B) was 2.16 ×10⁻⁶ cm/s. In addition, the Papp B→A at 120 min, 10 μM in series [5] (B to A) is 3.72 ×10⁻⁶ cm/s. Further, in series [3], the GI50 was less than 1000 nM and the “Compound GI50” value is “B (B: GI50 of the reference compound < GI50 of the compound ≤ 3.0 * GI50 of the reference compound)”.
